In data set [1] the test system is angiotensin II (AII)-induced AAA. The data set is described as follows: AII-induced AAA mouse model, post-treatment. It is filed as in vivo. From the text:
To determine if senescence is a major cause of aneurysm development, the association between senescence and aneurysms using the angiotensin II (AII)-induced AAA model was investigated. Mice were infused AII for four weeks using osmotic mini-pump implantation into Apoe^−/− transgenic mouse.
To investigate the therapeutic potential of ketotherapy for abdominal aortic aneurysm (AAA), Ketogenic-diet (KD) and Ketone-ester (KE) were provided to angiotensin II (AII)-induced mouse model of AAA (FIG. 6). […] After completing AII infusion, the mice were post-treated with KD and KE for two to four weeks.
To investigate the time-dependent reduction of aorta diameter, the inner diameter of the aorta using ultrasound analysis was measured.

The subject of data set [2] is senescent SMCs. In words: Cellular viability (cytotoxicity) assay of senescent and normal SMCs. The conditions noted are these: premature senescence by H2O2, Arsenite or Nutlin 3a, FIG. 2A. Format: cell-based. The protocol: (§1) FIGS. 2A-2L. (a) Cytotoxicity assay of normal smooth muscle cells (NS) and senescent smooth muscle cells (SMCs). Replicative senescent SMCs (RS) and premature senescent SMCs, stimulated by H2O2 (HP), arsenic (Ars), and Nutlin 3a (Nut) treatment were treated with βHB, s-βHB, and ABT-737. (b) Flow cytometry analysis of apoptosis by βHB or s-βHB in radiation (10 Gy)-induced senescent SMC. (c) Quantitation of apoptotic cell and senescent cell after treating βHB and s-βHB in radiation-induced senescent SMC. (d) Representative aorta image of AII-infused mice with post-treatment of ABT-737, βHB and s-βHB. (e) External diameter of abdominal aorta infused with AII and post-treated with ABT-737 βHB and s-βHB. (f) SA-βGal activity assay of the whole aorta infused with AII, and post-treated with ABT-737, KD, or KE. (g) Quantitation of senescent area on aorta of AII-infused mice, and post-treated with KD, KE and ABT-737. (h) TUNEL assay on the abdominal aorta of AII infused mice, and treated with ABT-737, βHB, or s-βHB. SM-α Actin (SMA) and DAPI are co-stained after TUNEL reaction. […]
The clearance of senescent cells that accumulate during the aneurysm development is required to reduce the volume of aneurysm plaque. Thus, the senotherapeutic potential of βHB to reverse AAA progression was evaluated. […]

Data set [3] deals with senescent SMCs. In words: Flow cytometry (FACS) apoptosis analysis, PI and Annexin V. The conditions noted are these: FIGS. 2B, 2C. Format: cell-based. As to the method: as §1, with “reaction. (i) Caspase 3 activity assay on normal SMCs (NC) treated with βHB, or s-βHB, and ABT-737 comparing to normal cells pretreated with Nutlin-3a. (j) Caspase 3 activity assay on senescent SMCs (SNC) treated with βHB, or s-βHB, and ABT-737 compared to senescent cells pretreated with pifithrin-α.” for “reaction.”
(In general: A flow cytometer gives signals particle by particle.)

The next data set relates to normal SMCs (NC). In words: Caspase 3 activity assay on normal SMCs. Format: cell-based. The conditions noted are these: FIG. 2I. The protocol: (§2) FIGS. 2A-2L. (a) Cytotoxicity assay of normal smooth muscle cells (NS) and senescent smooth muscle cells (SMCs). Replicative senescent SMCs (RS) and premature senescent SMCs, stimulated by H2O2 (HP), arsenic (Ars), and Nutlin 3a (Nut) treatment were treated with βHB, s-βHB, and ABT-737. (b) Flow cytometry analysis of apoptosis by βHB or s-βHB in radiation (10 Gy)-induced senescent SMC. (c) Quantitation of apoptotic cell and senescent cell after treating βHB and s-βHB in radiation-induced senescent SMC. (d) Representative aorta image of AII-infused mice with post-treatment of ABT-737, βHB and s-βHB. (e) External diameter of abdominal aorta infused with AII and post-treated with ABT-737 βHB and s-βHB. (f) SA-βGal activity assay of the whole aorta infused with AII, and post-treated with ABT-737, KD, or KE. (g) Quantitation of senescent area on aorta of AII-infused mice, and post-treated with KD, KE and ABT-737. (h) TUNEL assay on the abdominal aorta of AII infused mice, and treated with ABT-737, βHB, or s-βHB. SM-α Actin (SMA) and DAPI are co-stained after TUNEL reaction. (i) Caspase 3 activity assay on normal SMCs (NC) treated with βHB, or s-βHB, and ABT-737 comparing to normal cells pretreated with Nutlin-3a. (j) Caspase 3 activity assay on senescent SMCs (SNC) treated with βHB, or s-βHB, and ABT-737 compared to senescent cells pretreated with pifithrin-α. (k) Western blot analysis for p53 and puma expression on abdominal aorta tissue from mice treated with AII or KE. (I) Immunohistochemistry staining for puma expression on abdominal aorta infused by AII and post-treated with KE.
To overcome the anti-apoptotic barrier of senescence cells, senolytics usually target p53/Bcl2 cascades. Moreover, p53 is considered as a barrier to prevent apoptosis in senescence cells. Therefore, it was investigated if βHB-mediated apoptosis is p53 dependent. […] To further validate p53 dependent apoptosis on AAA, p53 activation and puma expression were investigated. […] In addition, inflammatory response accompanying the apoptosis of senescence cells was observed specifically in the abdominal aorta tissue, while systemic inflammation decreased during ketotherapy (FIGS. 10A-F). […] Ketotherapy can lower the blood pressure caused by AII infusion, which is not the case with ABT-737 (FIGS. 10H-J).

The next data set relates to senescent SMCs (SNC). The data set is described as follows: Caspase 3 activity assay on senescent SMCs. Format: cell-based. The conditions noted are these: p53 inhibition by pifithirin-α, FIG. 2J. As to the method:
as §2, with “(k) Western blot analysis for p53 and puma expression on abdominal aorta tissue from mice treated with AII or KE. (I) Immunohistochemistry staining for puma expression on abdominal aorta infused by AII and post-treated with KE.” left out

For data set [4] the following is noted: in vivo. The text has this: We established an in vivo tolerance test of βHB and s-βHB (FIGS. 9A and 9B). […] The reduction of the inner diameter of the aortic wall is also dramatic in the treatment of s-βHB in FIG. 9F (Two-way ANOVA, ^###P<0.005, n=10).
Data set [5] has as its system Oct4 overexpressed senescent SMCs. In words: Oct4 overexpressed senescent SMCs (SA β-Gal, Western blot). Format: cell-based. From the text:
FIGS. 14A-14B show (a) SA β-Gal activity on Oct4 overexpressed SMCs with or without βHB treatment (2 days). Irradiated SMCs were infected by Lentivirus containing Crispr-dCas9-VP64_Oct4 plasmid prior to treating βHB. The arrow indicates localized senescent cell mass. (b) Western blot analysis after lentivirus (Crispr-dCas9-VP64_Oct4) infection into senescent SMCs without βHB treatment for 1 day or 2 days.
We proposed that Oct4 upregulation in senescence forms senescent spheroid-like cell mass and asymmetric configuration of aneurysms. To validate our central hypothesis, we overexpressed Oct4 in senescent SMCs using the CRISPR-dCas9-VP64 system to determine the role of Oct4. […] Localized increase of senescence may be highly associated with asymmetric dilation of aneurysms. […] We supposed that βHB prevents or reverses Oct4-induced senescence of SMCs, consequently reducing the size of aneurysms. To investigate the role of βHB in aneurysms, we assess the possibility of cellular reprogramming in senescent SMCs in the condition of Oct4 overexpression. […] In particular, a moderate increase of FAP (Fibroblast Activation Protein) provides a potential for reprogramming resulting in transdifferentiation of SMCs to myofibroblast. Recovered SM22 expression in Oct4 overexpressed senescent SMCs supposed that βHB converts the Oct4 function in dedifferentiation into a reprogramming-related role. We considered an βHB-induced epigenetic alteration of senescent cells contributing to Oct4-dependent cellular reprogramming based on this unique observation.
For orientation: Immunoblotting shows a protein as a band on a membrane.

The subject of data set [6] is angiotensin II (AII)-induced AAA. The data set is described as follows: AII-induced AAA mouse model, post-treatment. Format: in vivo. As to conditions: injection every other day for two weeks, FIG. 2E.

“Also recorded” adds a separate entry of the source.

Usually half-life stands for how long it takes for the measured level to halve. Higher therefore signals slow decline.

Regarding `C[C@@H](O)CC(=O)O` [βHB, (R)-3-Hydroxybutyrate], the “TUNEL assay, apoptosis of senescent plaque in the aneurysm” value in data set [1] (FIG. 2H) was “induced targeted apoptosis of senescent plaque”. Further, the “abdominal aorta stiffness, Pulse Wave Velocity (PWV)” value in data set [1] (FIG. 3H, FIG. 18A) is recorded as “ameliorated vascular stiffness; also recorded: reversed aneurysm-associated aortic stiffness”. For the same molecule, the “KβHB modified protein in abdominal aorta” value in data set [1] (in vivo, immunofluorescent staining, FIG. 15B) is “increases KβHB modified protein in nuclear”. Moreover, in data set [1] (incidence of AAA by angiotensin II infusion 67%, n=10, FIG. 9D), the “AAA rate after post-treating” value is 47%. Besides, the “AAA on whole aorta images” value in data set [1] (injected every other day for two weeks, FIG. 2D) was “successfully rescued”. The “myofibroblast, SM α-Actin and FSP co-staining in aortic wall” value in data set [1] (post-treatment, FIGS. 17A-17B) is recorded as “increases”. For the same molecule, the “number of senescent SMCs versus normal SMCs” value with senescent SMCs [2] is “selectively reduced the number of senescent SMCs and not normal SMCs; also recorded: slightly reduced”. The “apoptosis of senescent SMCs” value in the data set with senescent SMCs [3] is given as “induced targeted apoptosis of senescent SMCs”. In addition, the “apoptosis in normal cells after p53 stabilization” value in the data set on normal SMCs (NC) (after p53 stabilization by Nutlin 3a) is on record as “triggers apoptosis”. Besides, in the data set with normal SMCs (NC) (without Nutlin 3a), the “apoptosis in normal cells (NC)” value is on record as “did not induce apoptosis”. Further, the “apoptosis with p53 inhibition” value with senescent SMCs (SNC) was “did not induce apoptosis”. In data set [4], the half-life turned out to be 50 min and the metabolic elimination rate entry is reported as “faster than s-βHB”. Also, the “SM22 and β-galactosidase in Oct4 overexpressed-senescent cells” value in data set [5] (Oct4 overexpressed, FIG. 14B) is “recovers SMC maturation marker (SM22) and reduced senescence marker (β-galactosidase)”. In addition, the “localized senescence, SA β-Gal activity” value in data set [5] (Oct4 overexpression by CRISPR-dCas9-VP64, FIG. 14A) is recorded as “significantly reverses or prevents the development of localized senescence”. In addition, in data set [5] (without Oct4 activation, FIG. 14B), the “SM22 in senescent SMCs without Oct4 activation” value was “does not recover SM22”. Further, in data set [6], the “external diameter of the abdominal aorta” value was “significantly reduced”.

These data come from US20240342121A1, “THE USE OF BETA-HYDROXYBUTYRATES FOR THE TREATMENT OR PREVENTION OF ANEURYSMS AND DISSECTIONS” (priority 2021, published 2024).
